Assay results from paper PMC10885153, “Membrane Permeability in a Large Macrocyclic Peptide Driven by a Saddle-Shaped Conformation” (Journal of the American Chemical Society, 2024).
In brackets after ≈: the same amount, converted by molar mass. Like-named read-outs stand apart in the source and are kept apart here. Positions of bridges follow the written chain, without caps; N, C: chain ends. Non-standard residues stand in square brackets, D forms with d. Residues, ends and D or L forms follow the SMILES beside them. Cha = N[C@@H](CC1CCCCC1)C(=O)O; NMeNva = CCC[C@H](NC)C(=O)O; NMeAbu = CC[C@H](NC)C(=O)O; NMeC = CN[C@@H](CS)C(=O)O; NMeA = CN[C@@H](C)C(=O)O; dAbu = CC[C@@H](N)C(=O)O; dNMeA = CN[C@H](C)C(=O)O; Nva = CCC[C@H](N)C(=O)O; Abu = CC[C@H](N)C(=O)O; Nleu = CC(C)CNCC(=O)O; NPrGly = CCCNCC(=O)O; NEtG = CCNCC(=O)O

Assays:
[1] = MDCK
Procedure: (§1) We also tested the permeabilities of the pure compounds in a cell-based trans-well permeability assay using Mdr1 knockout Madin–Darby canine kidney (MDCK) cells which minimize the endogenous efflux activity of traditional MDCK cells.[54]
(§2) The gMDCKI cell line (overexpressed cell line of Madin -Darby Canine Kidney which acquired from the NIH)
(§3) maintained in DMEM medium supplemented with 1% pen -strep, 5 µg/mL Plasmocin, and 10% FBS under
(§4) standard culture conditions (37 °C, 95% humidity, and 5% CO2), were seeded (0.75 x 10^5 cells) on the HTS
(§5) Transwell-96 permeable support (Corning) to form a confluent monolayer for two days.
(§6) All experimental steps were fully automated on Hamilton Vantage. Compound stock solution (1 mM in
(§7) DMSO) was diluted (10 μM final in HBSS, pH 7.4) with Lucifer Yellow as leakage indicator (20 μM). After
(§8) washing with HBSS buffer, the solution of test compounds was added to the apical side of the monolayers.
(§9) The plate was incubated for 3 h at 37 °C. T0 samples (10 µL of the 10 µM compounds diluted solution with
(§10) LY) were transferred to a 96-well plate, and then 40 µL of HBSS was added. After 3 hours, 50 μL basolateral
(§11) samples in the receiving plate were transferred to a fresh 96-well plate and added 100 μL of IS solution
(§12) (Propranolol). LY were read by plate reader and the samples were analyzed by LC/MS/MS.
(§13) The apparent permeability coefficient (Papp) is calculated from the permeation rate and compound
concentration at t=0h and t=3h. Where:
(§14) dQ/dt: amount of product present in the basal (A-B) or apical (B-A) compartment as a function of time
A: area of transwell (cm2).
(§15) C0: initial concentration of product applied in the apical (A -B) or basal (B-A) compartment (nmol/ml).

in vitro [2] = settings: dog, pH 7.4
Procedure: as §1, §2, §3, §4, §5, §6, §7, §8, §9, §10, §11, §12, §13
concentration at t=0h and t=3h. Where:
as §14
A: area of transwell (cm2).
as §15

[3] = system: Mdr1 knockout Madin–Darby canine kidney (MDCK) cells
Procedure: as §1, §2, §3, §4, §5, §6, §7, §8, §9, §10, §11, §12, §13
concentration at t=0h and t=3h. Where:
as §14
A: area of transwell (cm2).
as §15

in vitro [4] = settings: PAMPA
Procedure: (§16) assay was carried out with a 96-well donor plate with 0.45 μ hydrophobic Immobilon-P membrane supports
(§17) (Millipore MAIPNTR10) and a 96-well Teflon acceptor plate (Millipore MSSACCEPTOR). The PAMPA
protocol then proceeded as follows:
(§18) Donor well solutions were prepared to a volume of 1 000 µL with the analytes as a solution in 1X
(§19) PBS pH 7.4 and 5% DMSO. To a 3 mL Eppendorf tube was added 950 µL of 1X PBS pH 7.4, 40
Analyte – 10 µM per compound
(§20) sonicated (5 min) to ensure full dissolution of the lecithin. The donor membrane plate was turned
(§21) upside down and bottom of the membranes exposed. 5 µL of the 1% soy lecithin solution in
(§22) dodecane was then placed on the bottom of the membrane, allowing the drop to spread across the
(§23) full area of the membrane. Any membranes with visible damage were not used in the assay. The
(§24) membranes were allowed to equilibrate for 5 min before loading.
(§25) 3. Each well within the Teflon block acceptor plate that was to be used in the assay was then loaded
(§26) with 300 µL of 1X PBS pH 7.4 and 5% DMSO.
(§27) Working without break, 150 µL of each donor well solution was transferred from the to the 96-well
(§28) donor plate. Each mixture of interest was r un in quadruplicate, using a new well for each replicate.
(§29) As soon as the 96-well donor plate was finished being loaded, it was gently placed into the 96-well
(§30) Teflon acceptor plate, taking care not to trap any air bubbles beneath the membrane.
(§31) The donor/acceptor plates were covered gently with the lid to minimize evaporation and transferred
(§32) gently as a system to a sealed chamber and left to sit overnight at room temperature. The chamber
(§33) was kept from drying by placing a wet paper towel within to prevent evaporation.
(§34) After ~19-20 hours the donor plate was removed from the acceptor plate.
(§35) 50 µL of each well (donor and acceptor) were transferred to a 96 -well plate and diluted with 50 µL
(§36) of methanol prior to heat sealing and quantification by UPLC -MS.

[5] = PAMPA, 10 µM, pH 7.4
Procedure: (§37) Passive permeabilities of the 36 compounds were measured in multiplex as mixtures of six compounds each using the parallel artificial membrane permeability assay (PAMPA).[44]−[46]
(§38) Protocol is identical for both mixture and pure compound analysis.
(§39) Two of the following: Carbamazepine (CBZ), propranolol (Prop), and 1NMe35 were
(§40) included as internal standards and prepared as DMSO stocks at a concentration of 2 000 µM.
as §16
(§41) (Millipore MAIPNTR10) and a 96-well Teflon acceptor plate (Millipore MSSACCEPTOR).
protocol then proceeded as follows:
as §18, §19
(§42) The solutions were vortexed and set aside.
Analyte – 10 µM per compound
(§43) A 1% solution of soy lecithin in dodecane was freshly prepared in a 3 mL Eppendorf tube and
as §20, §21, §22
(§44) full area of the membrane. Any membranes with visible damage were not used in the assay.
as §24
(§45) Each well within the Teflon block acceptor plate that was to be used in the assay was then loaded
as §26, §27, §28, §29, §30, §31, §32, §33, §34, §35, §36

[6] = 10 µM, pH 7.4
Procedure: as §16, §17
protocol then proceeded as follows:
as §18, §19
Analyte – 10 µM per compound
as §20, §21, §22, §23, §24, §25, §26, §27, §28, §29, §30, §31, §32, §33, §34, §35, §36

in vitro [7] = settings: PAMPA, pH 7.4, Permeability (Papp) PAMPA (mixture)
Procedure: as §37, §38, §39, §40, §16, §41
protocol then proceeded as follows:
as §18, §19, §42
Analyte – 10 µM per compound
as §43, §20, §21, §22, §44, §24, §45, §26, §27, §28, §29, §30, §31, §32, §33, §34, §35, §36

[8] = pH 7.4, Permeability (Papp) PAMPA (indiv.)
[9] = pH 7.4, aqueous with cosolvent or surfactant or cyclodextrin, kinetic from dmso stock
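Wherever PAMPA Papp avg is given: artificial membrane of 1% soy lecithin in dodecane on a filter plate, donor and acceptor buffer PBS pH 7.4 with 5% DMSO, incubated overnight at room temperature.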

Procedure for physchem: Kinetic Solubility PBS Protocol
4 µL of 10 mM compound in DMSO stock was added to 196 µL 1 X PBS pH 7.4 in a 96 -well microplate to
get a final concentration of 200 µM to shake for 24 hours at 1000 rpm. The sample was filtered sample
using a 96-Multiscreen HTS filter plate (Millipore MSSL BPC50) and a positive pressure manifold.

SMILES | Papp at 10 µM (in vitro [4]; [8]) | Papp A→B at 3 h, 10 µM (in vitro [2]; MDCK) | %R_avg [5] | solubility kinetic at 24 h (physchem; [9]) | further results
CCOC(=O)[C@@H]1CSCC(=O)N[C@@H](CC)C(=O)N(C)[C@@H](C)C(=O)N[C@@H](CC(C)C)C(=O)N(C)[C@H](C)C(=O)N(CC(C)C)CC(=O)N[C@H](CC(C)C)C(=O)N(C)[C@H](C)C(=O)N[C@@H](CC(C)C)C(=O)N1C [A1-1L, O=C(N(C)[C@H](C(OCC)=O)CSCC(N[C@H](C(N(C)[C@@H](C)C(N[C@@H](CC(C)C)C(N(C)[C@H](C)C(N(CC(C)C)CC(N[C@@H]1CC(C)C)=O)=O)=O)=O)=O)CC)=O)[C@H](CC(C)C)NC([C@@H](C)N(C)C1=O)=O] ({CH2CO}-[Abu][NMeA]L[dNMeA][Nleu][dL][dNMeA]L[NMeC]-OEt; thioether N-9) | – | – | – | – | Papp [1]: 0.9 ×10⁻⁶ cm/s; Papp A→B (in vitro [2]): 0.93 ×10⁻⁶ cm/s
CCOC(=O)[C@@H]1CSCC(=O)N[C@H](CC)C(=O)N(C)[C@@H](C)C(=O)N[C@@H](CC(C)C)C(=O)N(C)[C@H](C)C(=O)N(CC(C)C)CC(=O)N[C@@H](CC(C)C)C(=O)N(C)[C@H](C)C(=O)N[C@@H](CC(C)C)C(=O)N1C [A1-6L, O=C(N(C)[C@H](C(OCC)=O)CSCC(N[C@@H](C(N(C)[C@@H](C)C(N[C@@H](CC(C)C)C(N(C)[C@H](C)C(N(CC(C)C)CC(N[C@H]1CC(C)C)=O)=O)=O)=O)=O)CC)=O)[C@H](CC(C)C)NC([C@@H](C)N(C)C1=O)=O] ({CH2CO}-[dAbu][NMeA]L[dNMeA][Nleu]L[dNMeA]L[NMeC]-OEt; thioether N-9) | – | – | – | – | Papp [1]: 0.9 ×10⁻⁶ cm/s; Papp A→B (in vitro [2]): 0.86 ×10⁻⁶ cm/s
CCOC(=O)[C@@H]1CSCC(=O)N[C@H](CC)C(=O)N(C)[C@@H](C)C(=O)N[C@@H](CC(C)C)C(=O)N(C)[C@H](C)C(=O)N(CC(C)C)CC(=O)N[C@H](CC(C)C)C(=O)N(C)[C@@H](C)C(=O)N[C@@H](CC(C)C)C(=O)N1C [A1-7L, O=C(N(C)[C@H](C(OCC)=O)CSCC(N[C@@H](C(N(C)[C@@H](C)C(N[C@@H](CC(C)C)C(N(C)[C@H](C)C(N(CC(C)C)CC(N[C@@H]1CC(C)C)=O)=O)=O)=O)=O)CC)=O)[C@H](CC(C)C)NC([C@H](C)N(C)C1=O)=O] ({CH2CO}-[dAbu][NMeA]L[dNMeA][Nleu][dL][NMeA]L[NMeC]-OEt; thioether N-9) | – | – | – | – | MDCK Pe_avg ([3]; resynthesized stereoscan compounds, 10 μM, HBSS pH 7.4, 3 h): 6.41 ×10⁻⁶ cm/s
CCOC(=O)[C@@H]1CSCC(=O)N[C@H](CC)C(=O)N(CC(C)C)CC(=O)N[C@@H](CC(C)C)C(=O)N(C)[C@H](C)C(=O)N(C)[C@@H](C)C(=O)N[C@H](CC(C)C)C(=O)N(C)[C@@H](C)C(=O)N[C@@H](CC(C)C)C(=O)N1C [B1-7L, O=C([C@@H](NC([C@@H](N(C([C@H](NC([C@@H](N(C([C@H](N(C)C([C@@H](NC(CN1CC(C)C)=O)CC(C)C)=O)C)=O)C)C)=O)CC(C)C)=O)C)C)=O)CC(C)C)N([C@@H](CSCC(N[C@H](CC)C1=O)=O)C(OCC)=O)C] ({CH2CO}-[dAbu][Nleu]L[dNMeA][NMeA][dL][NMeA]L[NMeC]-OEt; thioether N-9) | – | – | – | – | Papp at 10 µM (in vitro [4]; pH 7.4, PAMPA Papp): 5.7 ×10⁻⁶ cm/s; Papp at 3 h, 10 µM (in vitro [2]; MDCK): 1.2 ×10⁻⁶ cm/s; MDCK Pe_avg ([3]; dog, MDCK, 3 h, 10 µM, pH 7.4): 1.21 ×10⁻⁶ cm/s

Continued, in another order:

Papp at 10 µM (in vitro [4]; [8]) | Papp A→B at 3 h, 10 µM (in vitro [2]; MDCK) | %R_avg [5] | solubility kinetic at 24 h (physchem; [9]) | SMILES | further results
4.1 ×10⁻⁶ cm/s | 4.5 ×10⁻⁶ cm/s | 17.1% | – | CCOC(=O)[C@@H]1CSCC(=O)N[C@@H](CC(C)C)C(=O)N(C)[C@@H](C)C(=O)N[C@@H](CC(C)C)C(=O)N2CCC[C@@H]2C(=O)N(CC)CC(=O)N[C@@H](CC)C(=O)N(C)[C@@H](C)C(=O)N[C@@H](CC(C)C)C(=O)N1C [LA02, O=C(N(C)[C@H](C(OCC)=O)CSCC(N[C@H](C(N(C)[C@@H](C)C(N[C@@H](CC(C)C)C(N1[C@H](CCC1)C(N(CC)CC(N[C@H]2CC)=O)=O)=O)=O)=O)CC(C)C)=O)[C@H](CC(C)C)NC([C@H](C)N(C)C2=O)=O] ({CH2CO}-L[NMeA]L[dP][NEtG][Abu][NMeA]L[NMeC]-OEt; thioether N-9) | solubility kinetic at 24 h (physchem; pH 7.4, kinetic from dmso stock): 200 µM (≈ 196 µg/mL); Papp at 3 h, 10 µM (in vitro [2]; MDCK): 4.5 ×10⁻⁶ cm/s; PAMPA Papp_avg [6]: 4.1 ×10⁻⁶ cm/s
1.3 ×10⁻⁶ cm/s | 8.4 ×10⁻⁶ cm/s | 6.6% | 122 µM (≈ 123 µg/mL) | CCC[C@@H]1NC(=O)[C@H](C)N(C)C(=O)[C@H](CC(C)C)NC(=O)CSC[C@@H](C(=O)OCC)N(C)C(=O)[C@H](CC(C)C)NC(=O)[C@H](C)N(C)C(=O)[C@H](CC(C)C)NC(=O)CN(CCC)C(=O)[C@H]2CCCN2C1=O [LA07, O=C(N(C)[C@H](C(OCC)=O)CSCC(N[C@H](C(N(C)[C@@H](C)C(N[C@@H](CCC)C(N1[C@H](CCC1)C(N(CCC)CC(N[C@H]2CC(C)C)=O)=O)=O)=O)=O)CC(C)C)=O)[C@H](CC(C)C)NC([C@H](C)N(C)C2=O)=O] ({CH2CO}-L[NMeA][Nva][dP][NPrGly]L[NMeA]L[NMeC]-OEt; thioether N-9) | Papp at 10 µM (in vitro [7]): 3 ×10⁻⁶ cm/s
1.1 ×10⁻⁶ cm/s | 1.8 ×10⁻⁶ cm/s | 51.1% | 126 µM (≈ 124 µg/mL) | CCOC(=O)[C@@H]1CSCC(=O)N[C@@H](CC(C)C)C(=O)N(CC)CC(=O)N[C@@H](CC(C)C)C(=O)N2CCC[C@@H]2C(=O)N(C)[C@@H](C)C(=O)N[C@@H](CC)C(=O)N(C)[C@@H](C)C(=O)N[C@@H](CC(C)C)C(=O)N1C [LB02, O=C(N(C)[C@H](C(OCC)=O)CSCC(N[C@H](C1=O)CC(C)C)=O)[C@H](CC(C)C)NC([C@H](C)N(C)C([C@H](CC)NC([C@H](C)N(C)C([C@@H]2N(C([C@H](CC(C)C)NC(CN1CC)=O)=O)CCC2)=O)=O)=O)=O] ({CH2CO}-L[NEtG]L[dP][NMeA][Abu][NMeA]L[NMeC]-OEt; thioether N-9) | Papp A→B at 3 h, 10 µM (in vitro [2]): 1.77 ×10⁻⁶ cm/s; Papp at 10 µM (in vitro [7]): 1 ×10⁻⁶ cm/s
– | 2.6 ×10⁻⁶ cm/s | 35.8% | 105 µM (≈ 104 µg/mL) | CCCN1CC(=O)N[C@@H](CC(C)C)C(=O)N2CCC[C@@H]2C(=O)N(C)[C@@H](C)C(=O)N[C@@H](CC)C(=O)N(C)[C@@H](C)C(=O)N[C@@H](CC(C)C)C(=O)N(C)[C@H](C(=O)OCC)CSCC(=O)N[C@@H](CC(C)C)C1=O [LB04, O=C(N(C)[C@H](C(OCC)=O)CSCC(N[C@H](C1=O)CC(C)C)=O)[C@H](CC(C)C)NC([C@H](C)N(C)C([C@H](CC)NC([C@H](C)N(C)C([C@@H]2N(C([C@H](CC(C)C)NC(CN1CCC)=O)=O)CCC2)=O)=O)=O)=O] ({CH2CO}-L[NPrGly]L[dP][NMeA][Abu][NMeA]L[NMeC]-OEt; thioether N-9) | MDCK Papp_avg ([3]; dog, MDCK, 3 h, 10 µM, pH 7.4): 2.6 ×10⁻⁶ cm/s
3.3 ×10⁻⁶ cm/s | 6.5 ×10⁻⁶ cm/s | 11.2% | 183 µM (≈ 185 µg/mL) | CCC[C@H]1C(=O)N[C@@H](CC)C(=O)N(C)[C@@H](C)C(=O)N[C@@H](CC(C)C)C(=O)N(C)[C@H](C(=O)OCC)CSCC(=O)N[C@@H](CC(C)C)C(=O)N(C)[C@@H](C)C(=O)N[C@@H](CC(C)C)C(=O)N2CCC[C@@H]2C(=O)N1C [LC04, O=C(N(C)[C@H](C(OCC)=O)CSCC(N[C@H](C(N(C)[C@@H](C)C(N[C@@H](CC(C)C)C(N1[C@H](CCC1)C(N(C)[C@@H](CCC)C(N[C@H]2CC)=O)=O)=O)=O)=O)CC(C)C)=O)[C@H](CC(C)C)NC([C@H](C)N(C)C2=O)=O] ({CH2CO}-L[NMeA]L[dP][NMeNva][Abu][NMeA]L[NMeC]-OEt; thioether N-9) | PAMPA Papp_avg [6]: 3.3 ×10⁻⁶ cm/s
1.1 ×10⁻⁶ cm/s | 3.9 ×10⁻⁶ cm/s | 4.5% | 109 µM (≈ 111 µg/mL) | CCC[C@@H]1NC(=O)[C@H](C)N(C)C(=O)[C@H](CC(C)C)NC(=O)CSC[C@@H](C(=O)OCC)N(C)C(=O)[C@H](CC(C)C)NC(=O)[C@H](C)N(C)C(=O)[C@H](CC(C)C)NC(=O)[C@H](CCC)N(C)C(=O)[C@H]2CCCN2C1=O [LC07, O=C(N(C)[C@H](C(OCC)=O)CSCC(N[C@H](C(N(C)[C@@H](C)C(N[C@@H](CCC)C(N1[C@H](CCC1)C(N(C)[C@@H](CCC)C(N[C@H]2CC(C)C)=O)=O)=O)=O)=O)CC(C)C)=O)[C@H](CC(C)C)NC([C@H](C)N(C)C2=O)=O] ({CH2CO}-L[NMeA][Nva][dP][NMeNva]L[NMeA]L[NMeC]-OEt; thioether N-9) | –
0.3 ×10⁻⁶ cm/s | 1.8 ×10⁻⁶ cm/s | 6.1% | 10 µM (≈ 10.5 µg/mL) | CCC[C@@H]1NC(=O)[C@H](C)N(C)C(=O)[C@H](CC(C)C)NC(=O)CSC[C@@H](C(=O)OCC)N(C)C(=O)[C@H](CC(C)C)NC(=O)[C@H](C)N(C)C(=O)[C@H](CC2CCCCC2)NC(=O)[C@H](CC)N(C)C(=O)[C@H]2CCCN2C1=O [LC09, O=C(N(C)[C@H](C(OCC)=O)CSCC(N[C@H](C(N(C)[C@@H](C)C(N[C@@H](CCC)C(N1[C@H](CCC1)C(N(C)[C@@H](CC)C(N[C@H]2CC3CCCCC3)=O)=O)=O)=O)=O)CC(C)C)=O)[C@H](CC(C)C)NC([C@H](C)N(C)C2=O)=O] ({CH2CO}-L[NMeA][Nva][dP][NMeAbu][Cha][NMeA]L[NMeC]-OEt; thioether N-9) | MDCK Papp_avg ([3]; dog, MDCK, 3 h, 10 µM, pH 7.4): 1.8 ×10⁻⁶ cm/s
